# Values of other authors in patent publication US20160296513A1 (Teva Pharmaceutical Industries Ltd., priority 2013, published 2016).
# Columns and labels:
# [1] = system: first-line treatment-refractory RRMS; conditions: CARE-MS II
# [2] = system: relapsing-remitting multiple sclerosis (RRMS); conditions: CARE-MS I, vs interferon beta-1a
# [3] = system: multiple sclerosis patients; conditions: human, in vivo
# [4] = in vivo
# [5] = system: MS
# [6] = system: genes related to antigen presentation and corresponding inflammatory pathways; conditions: mainly via the NFkB pathway
molecule,measurement,setting,value
Alemtuzumab: recombinant DNA-derived humanized monoclonal IgGlx antibody raised against CD52,accumulation of disability,[1],sustain accumulation of disability
same,relapse rates,[1],reduce relapse rates
same,relapse,"[2]; 12 mg/day IV 5 days at Month 0, 3 days at Month 12",reduction of relapse
same,disability endpoints,[2],did not show benefit
same,"depletion repletion pattern for T cells, B cells and monocytes",[3],well characterized depletion repletion pattern
same,effect on inflammatory axis,[3],large and sustained
"CCN(C(=O)c1c(O)c2c(Cl)cccc2n(C)c1=O)c1ccccc1 [Laquinimod, 5-chloro-N-ethyl-4-hydroxy-1-methyl-2-oxo-N-phenyl-1,2-dihydroquinoline-3-carboxamide]",oral bioavailability,[4],high
same,neurodegeneration and non-relapse-dependent disability progression,[5]; in MS,showed potential for slowing neurodegeneration and reducing non-relapse-dependent disability progression
same,Confirmed Disease Progression (CDP),[5]; unexplained by inflammatory markers,sustain Confirmed Disease Progression (CDP)
same,suppression of genes related to antigen presentation and corresponding inflammatory pathways,[6],induced suppression
